Laboratory results reported in patent publication US12590062B2, “PD-1/PD-L1 inhibitors” (Gilead Sciences, Inc., priority 2017, dated 2026).

Columns and labels:
PD-1/PD-L1 = PD-1/PD-L1 (Homo sapiens, UniProt Q9NZQ7); assay: PD-1/PD-L1 biochemical protein-protein interaction assay (ALPHA); assay type: binding; settings: 0.3 nM His tagged PD-L1, 2.5 nM biotinylated Fc-PD-1, 60 minutes at 25° C., read-out: IC50 PD-L1-PD-1 Alpha IC50-mono PD-L1-fcP-D1
Procedure, shortened: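 Extracellular-domain binding of His-tagged PD-L1 (0.3 nM final) to biotinylated Fc-PD-1 (2.5 nM final) was measured by ALPHA in 25 mM Hepes pH 7.4, 150 mM NaCl, 3.4 mM EDTA, 0.005% Tween 20, 0.01% BSA. After 60 min at 25° C, anti-His acceptor and streptavidin donor beads were added; IC50 from four-parameter fits.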

PD-1/PD-L1 interaction = molecular target: T1, PD-1/PD-L1 interaction (Homo sapiens, UniProt Q9NZQ7); assay: PD-1/PD-L1 NFAT reporter co-culture assay; assay type: cell-based; settings: Jurkat PD-1 NFAT-luciferase cells co-cultured with aAPC-PD-L1 CHO cells, 6 hrs at 37° C.; read-out: EC50 NFAT Luciferase
T1 construct: expressed in transfected cells; host or cells: CHO cells (aAPC-PD-L1) co-cultured with Jurkat cells overexpressing PD-1 and an NFAT-luciferase reporter
T1 sequence (Q9NZQ7 19-290): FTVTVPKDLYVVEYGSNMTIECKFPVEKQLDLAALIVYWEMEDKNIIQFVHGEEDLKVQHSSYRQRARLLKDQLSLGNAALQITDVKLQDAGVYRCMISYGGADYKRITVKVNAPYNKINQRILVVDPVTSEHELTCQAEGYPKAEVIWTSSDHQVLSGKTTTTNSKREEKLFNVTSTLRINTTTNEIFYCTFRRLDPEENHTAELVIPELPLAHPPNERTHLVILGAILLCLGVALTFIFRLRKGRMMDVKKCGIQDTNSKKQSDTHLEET
Procedure, shortened: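 Restoration of TCR-driven NFAT luciferase signal: 6 h, 37 °C co-culture of PD-1 Jurkat reporter cells (pre-mixed with compound) on overnight-seeded PD-L1/anti-CD3 CHO monolayer. ONE-Glo luminescence; dose-response fitted to four-parameter equation for EC50.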

PD-L1 = molecular target: T2, PD-L1 (Homo sapiens, UniProt Q9NZQ7); assay: PD-L1/PD-L1 dimerization biochemical protein-protein interaction assay (ALPHA); assay type: binding; settings: compound-induced PD-L1 dimerization, head prints '1 nM' (0.5 nM His-tagged PD-L1 and 0.5 nM FLAG-tagged PD-L1), read-out: AC50 PDL1 Dimer Alpha 1 nM
T2 construct: determine if they can specifically dimerize the extracellular domains of PD-L1
T2 sequence (Q9NZQ7 19-238 limits assumed): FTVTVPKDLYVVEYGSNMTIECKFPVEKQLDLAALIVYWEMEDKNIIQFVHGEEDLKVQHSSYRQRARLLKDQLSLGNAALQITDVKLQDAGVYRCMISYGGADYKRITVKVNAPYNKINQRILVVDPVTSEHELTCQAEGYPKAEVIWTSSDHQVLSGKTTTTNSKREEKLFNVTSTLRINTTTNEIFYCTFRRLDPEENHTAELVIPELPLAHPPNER
T2 sequence (Q9NZQ7 19-238 limits assumed): as above
Procedure, shortened: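 ALPHA proximity assay of compound-induced dimerization of 0.5 nM His-tagged and 0.5 nM FLAG-tagged PD-L1 extracellular domains in Hepes pH 7.4 buffer, 2 h at 25 °C. Anti-His acceptor then anti-FLAG donor beads, 60 min each; AC50 from four-parameter fit.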

PD-1/PD-L1, sequence (Q9NZQ7 19-238 limits assumed): as above

Compound	IC50 (PD-1/PD-L1) [nM]	EC50 (PD-1/PD-L1 interaction) [nM]	AC50 (PD-L1) [nM]
COc1nc(O[C@H]2CCc3c(-c4cccc(-c5ccc(C6=NCCN6)c(OC)n5)c4Cl)cccc32)c(Br)cc1CNC[C@@H](O)CC(=O)O [Example 787]	0.066	58	35.4
Cn1cc(CN2CC3(CNC(=O)C3)C2)c2ncc(-c3cccc(-c4cccc(-c5cnc6c(CN7CC8(CNC(=O)C8)C7)cn(C)c6n5)c4Cl)c3Cl)nc21 [Example 588]	0.081	50	206
Cc1c(COc2cc(OCc3cncc(C#N)c3)c(CNC[C@@H](O)CC(=O)O)cc2Cl)cccc1-c1cccc(-c2ccc(CNC[C@@H](O)CC(=O)O)c(OC(F)F)c2)c1C [Example 461]	0.064	47	128
Cc1c(COc2cc(OCc3cncc(C#N)c3)c(CN[C@H]3CC[C@@H](C(=O)O)C3)cc2Cl)cccc1-c1cccc(-c2ccc(OCCNCCO)cc2)c1C [Example 338, (1R,3S)-3-((5-chloro-2-((5-cyanopyridin-3-yl)methoxy)-4-((4″-(2-((2-hydroxyethyl)amino)ethoxy)-2,2′-dimethyl-[1,1′:3′,1″-terphenyl]-3-yl)methoxy)benzyl)amino)cyclopentane-1-carboxylic acid]	0.179	1060	140
COc1nc(-c2cccc(-c3cccc(-c4ccc5c(ccn5CCN(C)C)c4)c3Cl)c2Cl)ccc1CNC[C@@H]1CCC(=O)N1 [Example 598, (S)-5-((((6-(2,2′-dichloro-3′-(1-(2-(dimethylamino)ethyl)-1H-indol-5-yl)-[1,1′-biphenyl]-3-yl)-2-methoxypyridin-3-yl)methyl)amino)methyl)pyrrolidin-2-one]	3	1840	480
Cc1c(COc2cc(OCc3cncc(C#N)c3)c(CNC[C@@H](O)CC(=O)O)cc2Cl)cccc1-c1cccc(-c2ccc3c(CCNC[C@@H](O)CC(=O)O)coc3c2)c1C [Example 348, (S)-4-((4-((3′-(3-(2-(((S)-3-carboxy-2-hydroxypropyl)amino)ethyl)benzofuran-6-yl)-2,2′-dimethyl-[1,1′-biphenyl]-3-yl)methoxy)-5-chloro-2-((5-cyanopyridin-3-yl)methoxy)benzyl)amino)-3-hydroxybutanoic acid]	0.122	381	80.4
COc1nc(-c2cccc(-c3cccc(-c4nc5cc(CNCCO)ccc5o4)c3Cl)c2Cl)ccc1CNCCO [Example 636]	0.188	180	83.6
N#Cc1cncc(COc2nc(O[C@H]3CCc4c(-c5cccc6c5CC[C@@H]6Oc5nc(OCc6cncc(C#N)c6)c(CNCCO)cc5Br)cccc43)c(Br)cc2CNCCO)c1 [Example 751]	4.51	355	182
Cc1c(COc2cc(OCc3cncc(C#N)c3)c(CNC[C@@H](O)CC(=O)O)cc2Cl)cccc1-c1cccc(-c2ccc(C3=NCCN3)c(OCCCC#N)c2)c1C [Example 465]	0.116	193	84.8
Cc1c(COc2nc(OCc3cncc(C#N)c3)c(CNCCO)cc2Cl)cccc1-c1cccc(-c2ccc(C(O)CN(C)C)cc2)c1C (stereo not drawn) [Example 306, 5-(((5-chloro-6-((4″-(2-(dimethylamino)-1-hydroxyethyl)-2,2′-dimethyl-[1,1′:3′,1″-terphenyl]-3-yl)methoxy)-3-(((2-hydroxyethyl)amino)methyl)pyridin-2-yl)oxy)methyl)nicotinonitrile]	1.97	547	292
Cc1c(COc2cc(OCc3cncc(C#N)c3)c(CNC[C@@H](O)CC(=O)O)cc2Cl)cccc1-c1cccc(COc2cc(OCc3cncc(C#N)c3)c(CNC[C@@H](O)CC(=O)O)cc2Cl)c1C [Example 66, (3S,3′S)-4,4′-((((((2,2′-dimethyl-[1,1′-biphenyl]-3,3′-diyl)bis(methylene))bis(oxy))bis(5-chloro-2-((5-cyanopyridin-3-yl)methoxy)-4,1-phenylene))bis(methylene))bis(azanediyl))bis(3-hydroxybutanoic acid)]	0.4	338	370
C[C@@](CO)(NCc1cc(Cl)c(OCc2cccc(-c3cccc(-c4ccc(OCCNCCO)cc4)c3Cl)c2Cl)nc1OCc1cc(C#N)cc(C#N)c1)C(=O)O [Example 352, (S)-2-(((5-chloro-6-((2,2′-dichloro-4″-(2-((2-hydroxyethyl)amino)ethoxy)-[1,1′:3′,1″-terphenyl]-3-yl)methoxy)-2-((3,5-dicyanobenzyl)oxy)pyridin-3-yl)methyl)amino)-3-hydroxy-2-methylpropanoic acid]	0.207	105	56.3
Cc1c(COc2cc(OCc3cncc(C#N)c3)c(CNC[C@@H](O)CC(=O)O)cc2Cl)cccc1-c1cccc(-c2ccc(OCCNC[C@@H](O)CC(=O)O)c(C(N)=O)c2)c1C [Example 312, (S)-4-((2-((3-carbamoyl-3″-((4-((((S)-3-carboxy-2-hydroxypropyl)amino)methyl)-2-chloro-5-((5-cyanopyridin-3-yl)methoxy)phenoxy)methyl)-2′,2″-dimethyl-[1,1′:3′,1″-terphenyl]-4-yl)oxy)ethyl)amino)-3-hydroxybutanoic acid]	0.051	97	144

Next, values leading:

IC50 (PD-1/PD-L1) [nM]	EC50 (PD-1/PD-L1 interaction) [nM]	AC50 (PD-L1) [nM]	Compound
0.282	46	137	C[C@@](CO)(NCc1cc(Cl)c(O[C@H]2CCc3c(-c4cccc5c4CC[C@@H]5Oc4nc(OCc5cc(C#N)cc(C#N)c5)c(CN[C@@](C)(CO)C(=O)O)cc4Cl)cccc32)nc1OCc1cc(C#N)cc(C#N)c1)C(=O)O [Example 686]
0.064	32	42	C[C@@](CO)(NCc1ccc(O[C@H]2CCc3c(-c4cccc(-c5ccc(CNC[C@@H]6CCC(=O)N6)cc5)c4Cl)cccc32)nc1OCc1cncc(C#N)c1)C(=O)O [Example 742]
0.064	14	42.8	COc1nc(-c2cccc(-c3cccc4c3CC[C@@H]4Oc3nc(OC)c(CN4CC[C@H](C(=O)O)C4)cc3Cl)c2Cl)ccc1CN1CC(C)(O)C1 [Example 706]
0.101	70	17.7	C[C@](CO)(NCc1cc(Br)c(OCc2cccc(-c3cccc(-c4ccc5c(c4)C[C@@H](N)C5)c3Cl)c2Cl)nc1OCc1cncc(C#N)c1)C(=O)O [Example 553]
0.064	34	23.3	COc1nc(O[C@H]2CCc3c(-c4cccc(-c5ccc(C6=N[C@@H](C)CN6)c(OC)n5)c4Cl)cccc32)c(Br)cc1CN[C@@](C)(CO)C(=O)O [Example 781]
0.421	243	194	COc1nc(-c2cccc(-c3cccc4c3CC[C@@H]4Oc3nc(OCc4cncc(C#N)c4)c(CN[C@@](C)(CO)C(=O)O)cc3Cl)c2Cl)ccc1CN1CC2(C1)CN(C(=O)OC(C)(C)C)C2 [Example 682]
0.158	1770	150	Cc1c(COc2nc(OCc3cncc(C#N)c3)c(CN[C@@](C)(CO)C(=O)O)cc2Cl)cccc1-c1cccc(-c2ccc3c(c2)CC[C@@]3(CO)N(C)C)c1C [Example 305, (S)-2-(((5-chloro-2-((5-cyanopyridin-3-yl)methoxy)-6-((3′-((R)-1-(dimethylamino)-1-(hydroxymethyl)-2,3-dihydro-1H-inden-5-yl)-2,2′-dimethyl-[1,1′-biphenyl]-3-yl)methoxy)pyridin-3-yl)methyl)amino)-3-hydroxy-2-methylpropanoic acid]
0.172	1540	686	Cc1c(COc2cc(OCc3cncc(C#N)c3)c(CN[C@@](C)(CO)C(=O)O)cc2Cl)cccc1-c1cccc(-c2ncc(CN3CC[C@@H](O)C3)cn2)c1C [Example 455]
0.536	702	599	COc1nc(-c2cccc(-c3cccc(COc4cc(OCc5cncc(C#N)c5)c(CN5CC[C@@H](O)C5)cc4Cl)c3C)c2C)ccc1CNC[C@@H](O)CC(=O)O [Example 307, (S)-4-(((6-(3′-((2-chloro-5-((5-cyanopyridin-3-yl)methoxy)-4-(((R)-3-hydroxypyrrolidin-1-yl)methyl)phenoxy)methyl)-2,2′-dimethyl-[1,1′-biphenyl]-3-yl)-2-methoxypyridin-3-yl)methyl)amino)-3-hydroxybutanoic acid]
0.064	97	50.1	Cc1c(COc2cc(OCc3cncc(C#N)c3)c(CN[C@@](C)(CO)C(=O)O)cc2Cl)cccc1-c1cccc(-c2ccc(C3=NCCN3)cn2)c1C [Example 500]
0.259	2990	823	COc1nc(O[C@H]2CCc3c(-c4cccc(-c5ccc6c(c5)C[C@@H](N)C6)c4Cl)cccc32)ccc1CN[C@@](C)(CO)C(=O)O [Example 783]
0.104	98	116	COc1nc(-c2cccc(-c3cccc4c3CC[C@@H]4Oc3nc(OCc4cncc(C#N)c4)c(CNC[C@@H](O)CC(=O)O)cc3Cl)c2Cl)ccc1CN1CC2(CCC(=O)N2)C1 [Example 683]
